In patent US12545639B2, “3-substituted phenylamidine compounds, preparation and use thereof” (PI INDUSTRIES LTD., priority 2019, dated 2026):

Legend:
[1] = tested on: Pyricularia oryzae; experiment: microbe, parasite or virus in culture; assay type: cell-based; conditions: 168 h, read-out: control compared to the untreated check (radial growth)
[2] = tested on: Alternaria solani; experiment: Alternaria solani (early blight of tomato/potato) in vitro test, radial growth on potato dextrose agar; assay type: cell-based; conditions: 168 h, 300 ppm in potato dextrose agar, 25° C., 60% relative humidity, seven days, read-out: control compared to the untreated check (radial growth)
[3] = tested on: Rhizoctonia solani; experiment: Rhizoctonia solani (rice sheath blight/potato black scurf) in vitro test, radial growth on potato dextrose agar; assay type: cell-based; conditions: 168 h, 300 ppm in potato dextrose agar, 25° C., 60% relative humidity, seven days, read-out: control compared to the untreated check (radial growth)
[4] = tested on: Phakopsora pachyrhizi; experiment: Phakopsora pachyrhizi test in soybean, preventive, in vivo on plants; conditions: in Glycine max, read-out: Efficacy (% control), disease severity compared to the untreated check

Structure (SMILES)	inhibition of growth at 300 ppm [1] [%]	inhibition of growth at 300 ppm [2] [%]	inhibition of growth at 300 ppm [3] [%]	pest or weed control at 500 ppm [4] [%]
CCN(C)C=Nc1cc(OC)cc(Cc2cccc(C#N)c2)c1C [Compound 306, N′-(3-(3-cyanobenzyl)-5-methoxy-2-methylphenyl)-N-ethyl-N-methylformimidamide]	≥ 70	≥ 70	≥ 70	
CCN(C)C=Nc1cc(OC)cc(N(C)c2ccc(F)c(OC)c2)c1C [Compound 284, N-ethyl-N′-(3-((4-fluoro-3-methoxyphenyl)(methyl)amino)-5-methoxy-2-methylphenyl)-N-methylformimidamide]				≥ 70
CCN(C)C=Nc1cc(F)cc(Nc2ccccn2)c1C [Compound 95, N-ethyl-N′-(5-fluoro-2-methyl-3-(pyridin-2-ylamino)phenyl)-N-methylformimidamide]				≥ 70
CCN(C)C=Nc1cc(Cl)cc(N(C)c2cccc(C(F)(F)F)n2)c1C [Compound 289, N′-(5-chloro-2-methyl-3-(methyl(6-(trifluoromethyl)pyridin-2-yl)amino)phenyl)-N-ethyl-N-methylformimidamide]	≥ 70	≥ 70		
CCN(C)C=Nc1cc(C)cc(N(C)c2ccc3ncsc3c2)c1Cl [Compound 240, N′-(3-(benzo[d]thiazol-6-yl(methyl)amino)-2-chloro-5-methylphenyl)-N-ethyl-N-methylformimidamide]	≥ 70	≥ 70		
CCN(C)C=Nc1cc(C)cc(Nc2cnccn2)c1Cl [Compound 194, N′-(2-chloro-5-methyl-3-(pyrazin-2-ylamino)phenyl)-N-ethyl-N-methylformimidamide]				≥ 70
CCN(C)C=Nc1cc(C)cc(N(C)c2ccc3c(c2)OCCO3)c1Cl [Compound 184, N′-(2-chloro-3-((2,3-dihydrobenzo[b][1,4]dioxin-6-yl)(methyl)amino)-5-methylphenyl)-N-ethyl-N-methylformimidamide]				≥ 70
CCN(C)C=Nc1cc(F)cc(Cc2cccnc2)c1C [Compound 260, N-ethyl-N′-(5-fluoro-2-methyl-3-(pyridin-3-ylmethyl)phenyl)-N-methylformimidamide]		≥ 70	≥ 70	
CCN(C)C=Nc1cc(OC)cc(Cc2cc(F)ccc2C)c1C [Compound 281, N-ethyl-N′-(3-(5-fluoro-2-methylbenzyl)-5-methoxy-2-methylphenyl)-N-methylformimidamide]				≥ 70
CCN(C)C=Nc1cc(F)cc(Cc2ccccc2C#N)c1C [Compound 168, N′-(3-(2-cyanobenzyl)-5-fluoro-2-methylphenyl)-N-ethyl-N-methylformimidamide]	≥ 70	≥ 70	≥ 70	
CCN(C)C=Nc1cc(F)cc(C(=O)COc2ccc(OC)cc2Cl)c1C [Compound 304, N′-(3-(2-(2-chloro-4-methoxyphenoxy)acetyl)-5-fluoro-2-methylphenyl)-N-ethyl-N-methylformimidamide]	≥ 70	≥ 70		
CCN(C)C=Nc1cc(C)cc(Nc2ccccc2OC(F)F)c1Cl [Compound 177, N′-(2-chloro-3-((2-(difluoromethoxy)phenyl)amino)-5-methylphenyl)-N-ethyl-N-methylformimidamide]	≥ 70	≥ 70	≥ 70	
CCN(C)C=Nc1cc(OC)cc(N(C)c2ccccc2OC)c1C [Compound 270, N-ethyl-N′-(5-methoxy-3-((2-methoxyphenyl)(methyl)amino)-2-methylphenyl)-N-methylformimidamide]				≥ 70
CCN(C)C=Nc1cc(C)cc(Nc2ccc3c(c2)OCCO3)c1Cl [Compound 169, N′-(2-chloro-3-((2,3-dihydrobenzo[b][1,4]dioxin-6-yl)amino)-5-methylphenyl)-N-ethyl-N-methylformimidamide]	≥ 70	≥ 70	≥ 70	
CCN(C)C=Nc1cc(OC)cc(Cc2ccc(F)c(Cl)c2)c1C [Compound 282, N′-(3-(3-chloro-4-fluorobenzyl)-5-methoxy-2-methylphenyl)-N-ethyl-N-methylformimidamide]				≥ 70
CCN(C)C=Nc1cc(C)cc(NCc2cnc(C)cn2)c1Cl [Compound 196, N′-(2-chloro-5-methyl-3-(((5-methylpyrazin-2-yl)methyl)amino)phenyl)-N-ethyl-N-methylformimidamide]				≥ 70
CCN(C)C=Nc1cc(Cl)cc(N(C)c2ccc(OC)cc2)c1C [Compound 167, N′-(5-chloro-3-((4-methoxyphenyl)(methyl)amino)-2-methylphenyl)-N-ethyl-N-methylformimidamide]	≥ 70	≥ 70	≥ 70	

Structure (SMILES)	inhibition of growth at 300 ppm [1] [%]	inhibition of growth at 300 ppm [2] [%]	inhibition of growth at 300 ppm [3] [%]	pest or weed control at 500 ppm [4] [%]
CCN(C)C=Nc1cc(C)cc(Cc2ccccc2C#N)c1Cl [Compound 47, N′-(2-chloro-3-(2-cyanobenzyl)-5-methylphenyl)-N-ethyl-N-methylformimidamide]	≥ 70	≥ 70		
CCN(C)C=Nc1cc(Cl)cc(Nc2cccc(C)c2)c1C [Compound 154, N′-(5-chloro-2-methyl-3-(m-tolylamino)phenyl)-N-ethyl-N-methylformimidamide]	≥ 70	≥ 70	≥ 70	
CCN(C)C=Nc1cc(OC)cc(Cc2ccc(Cl)cc2)c1C [Compound 279, N′-(3-(4-chlorobenzyl)-5-methoxy-2-methylphenyl)-N-ethyl-N-methylformimidamide]				≥ 70
CCN(C)C=Nc1cc(C)cc(Nc2cc(Cl)cc(C(F)(F)F)c2)c1Cl [Compound 137, N′-(2-chloro-3-((3-chloro-5-(trifluoromethyl)phenyl)amino)-5-methylphenyl)-N-ethyl-N-methylformimidamide]	≥ 70	≥ 70		
CCN(C)C=Nc1cc(C)cc(Nc2cc(F)cc(F)c2)c1Cl [Compound 78, N′-(2-chloro-3-((3,5-difluorophenyl)amino)-5-methylphenyl)-N-ethyl-N-methylformimidamide]	≥ 70	≥ 70		
CCN(C)C=Nc1cc(C)cc(N(C)c2ccc(OC)cc2)c1Cl [Compound 64, N′-(2-chloro-3-((4-methoxyphenyl)(methyl)amino)-5-methylphenyl)-N-ethyl-N-methylformimidamide]	≥ 70	≥ 70	≥ 70	
CCN(C)C=Nc1cc(C)cc(N(C)c2ncccn2)c1Cl [Compound 192, N′-(2-chloro-5-methyl-3-(methyl(pyrimidin-2-yl)amino)phenyl)-N-ethyl-N-methylformimidamide]				≥ 70
CCN(C)C=Nc1cc(C)cc(N(C)c2ccc(F)cc2F)c1Cl [Compound 82, N′-(2-chloro-3-((2,4-difluorophenyl)(methyl)amino)-5-methylphenyl)-N-ethyl-N-methylformimidamide]	≥ 70	≥ 70	≥ 70	
CCN(C)C=Nc1cc(C)cc(NC(C)Cc2cnccn2)c1Cl (stereo not drawn) [Compound 195, N′-(2-chloro-5-methyl-3-((1-(pyrazin-2-yl)propan-2-yl)amino)phenyl)-N-ethyl-N-methylformimidamide]				≥ 70
CCN(C)C=Nc1cc(F)cc(N(C)c2ccccn2)c1C [Compound 109, N-ethyl-N′-(5-fluoro-2-methyl-3-(methyl(pyridin-2-yl)amino)phenyl)-N-methylformimidamide]				≥ 70
CCN(C)C=Nc1cc(F)cc(Cc2ccc(SC)cc2)c1C [Compound 241, N-ethyl-N′-(5-fluoro-2-methyl-3-(4-(methylthio)benzyl)phenyl)-N-methylformimidamide]	≥ 70	≥ 70	≥ 70	
CCN(C)C=Nc1cc(F)cc(Nc2ncccn2)c1C [Compound 187, N-ethyl-N′-(5-fluoro-2-methyl-3-(pyrimidin-2-ylamino)phenyl)-N-methylformimidamide]				≥ 70
CCN(C)C=Nc1cc(C)cc(Nc2ncccc2C(F)(F)F)c1Cl [Compound 135, N′-(2-chloro-5-methyl-3-((3-(trifluoromethyl)pyridin-2-yl)amino)phenyl)-N-ethyl-N-methylformimidamide]	≥ 70		≥ 70	
CCN(C)C=Nc1cc(C)cc(N(C)c2cnccn2)c1Cl [Compound 210, N′-(2-chloro-5-methyl-3-(methyl(pyrazin-2-yl)amino)phenyl)-N-ethyl-N-methylformimidamide]				≥ 70
CCN(C)C=Nc1cc(F)cc(N(C)c2ccc3ncsc3c2)c1C [Compound 238, N′-(3-(benzo[d]thiazol-6-yl(methyl)amino)-5-fluoro-2-methylphenyl)-N-ethyl-N-methylformimidamide]	≥ 70	≥ 70		
CCN(C)C=Nc1cc(C)cc(N(C)c2cccc(OC)c2)c1Cl [Compound 49, N′-(2-chloro-3-((3-methoxyphenyl)(methyl)amino)-5-methylphenyl)-N-ethyl-N-methylformimidamide]	≥ 70	≥ 70		
CCN(C)C=Nc1cc(C)cc(N(C)c2cccc(C(F)(F)F)n2)c1Cl [Compound 290, N′-(2-chloro-5-methyl-3-(methyl(6-(trifluoromethyl)pyridin-2-yl)amino)phenyl)-N-ethyl-N-methylformimidamide]	≥ 70	≥ 70		
